Measurements as given in patent publication US11234968B2, “Use of VCP inhibitor and oncolytic virus in the preparation of an anti-tumor drug” (priority 2016, dated 2022).
“And” between values parts separate entries of the source, which are not always exact repeats. Equal entries are not always repeated.

What was measured:
[1] = test system: human liver cancer cell Hep3B; test: Morphological observation by phase contrast microscope (Example 1); type: cell-based; conditions: Eeyarestatin I 5 μM and/or M1 virus MOI=0.001; 48 hours after treatment
Method: b) Cell treatment and morphological observation: The cells in exponential growth phase were selected and added into a DMEM complete culture medium (containing 10% fetal bovine serum, 1% penicillin/streptomycin (Life Technologies)) to prepare a cell suspension. The cells were inoculated into a 24-well culture plate at a density of 2.5×10^4/well. Each well was then treated by addition of Eeyarestatin I (5 μM), M1 virus (MOI=0.001) or Eeyarestatin I (5 μM) plus M1 virus (MOI=0.001) or left untreated as a control.

[2] = test system: human liver cancer cell Hep3B; test: MTT survival rate of Hep3B cells, VCP inhibitor and/or M1 virus (Example 2); type: cell-based
Method: b) Reaction of MTT (3-(4,5-dimethylthiazol-2-yl)-2,5-diphenyltetrazolium bromide) with succinate dehydrogenase in the cells as follows: 48 hours after culture, 20 μl MTT (5 mg/ml) was added into each well, and was incubated for further 4 hours.
c) Dissolution of formazan particles formed in the cells was accomplished as follows: the supernatant was carefully sucked off, 100 μl/well DMSO was added to dissolve the formed crystals, and was shaken in a microoscillator for 5 minutes. Then, the optical density (OD value) of each well was detected in an enzyme linked detector at a wavelength of 570 nm. The experiments were repeated for 3 times for each group. The survival rate of the cells=OD value of the drug treatment group/OD value of the control group×100%.
Single and double asterisks in FIGS. 2(A) and 2(B) indicate results with one way ANOVA analysis showing a statistical difference with a single asterisk (*) indicating P<0.05 and a double asterisk (**) indicating P<0.01.

[3] = test system: endoplasmic reticulum stress markers (IRE1, XBP1(S), BiP, p-PERK, p-eIF2a, ATF6, poly-ub; caspase-12, CHOP, p-JNK); test: Western blot of endoplasmic reticulum stress markers and ER stress-associated apoptosis in Hep3B (Example 5); type: cell-based, human; conditions: Eeyarestatin I 5 μM and/or M1 virus MOI=0.001
Method: The cells in the exponential growth phase were selected and added into a DMEM complete culture medium to prepare a cell suspension. The cells were inoculated into a 60 mm culture dish at a density of 1×10^6. After 12 hours the cells were completely adherent to the wall. […] The dose was used as follows: M1 virus (MOI=0.001) that infected cells; Eeyarestatin I (5 μM).
After the time of drug treatment was set up, the protein samples were collected to carry out the Western blot for detecting the marker of endoplasmic reticulum stress (IRE1 XBP1(S), BiP, p-PERK, p-eIF2a, ATF6, poly-ub); and the activation of the pathway of endoplasmic reticulum stress-associated apoptosis (caspase-12, CHOP, p-JNK).

Compound | morphology of the cells [1] | reduction in cell number ([2]; 5 μM alone) | survival rate of tumor cells ([2]; 5 μM alone, 48 hours, MTT) | endoplasmic reticulum stress-associated markers and apoptosis pathway [3] | relative survival rates ([2]; CB-5083 alone compared to combination with M1 (MOI=0.001), 0.124 to 2 μM, FIG. 2(B))
CC1(C)C(N(O)C(=O)Nc2ccc(Cl)cc2)N(c2ccc(Cl)cc2)C(=O)N1CC(=O)N/N=C/C=C/c1ccc([N+](=O)[O-])o1 (centres unmarked) [Eeyarestatin I] | morphology of the cells was not changed significantly | 12.8% | 87.2% and 78.2% | induce the increase of endoplasmic reticulum stress-associated markers such as IREI, XBPI (S), p-PERK, p-eIF2a | –
Cc1cc2c(C(N)=O)cccc2n1-c1nc2c(c(NCc3ccccc3)n1)COCC2 [CB-5083] | – | – | – | – | significantly higher relative survival rates
